US20040197416A1, “Nanocapsules containing a steroid for cosmetic compositions” (priority 2001, published 2004)

Key:
skin = settings: rats; cited from earlier work
fibroblasts = settings: cited from earlier work
human keratinocytes = settings: cited from earlier work
[1] = Solubility of DHEA in various oily solvents (excess DHEA, supernatant analysed by HPLC); format: physicochemical; settings: for RT solubility: room temperature (25° C.), after 24 hours; for solubility of DHEA: comparative
Method: The solubility measurement was performed in the following manner. DHEA was dispersed, in excess, in the solvent under consideration, and preheated to 60° C. This temperature was maintained for one hour with stirring using a magnetic bar. The suspension was then cooled to room temperature (RT, 25° C.). After 24 hours, the suspension was centrifuged to remove the undissolved DHEA crystals. The supernatant was taken up and the absence of DHEA crystals was checked by cross-polarized optical microscopy. This supernatant was then analysed by HPLC. It is considered that the amount of DHEA detected corresponds to its maximum solubility in the solvent under consideration.

For `C[C@]12CC[C@H](O)CC1=C[C@@H](O)[C@@H]1[C@@H]2CC[C@]2(C)C(=O)CC[C@@H]12` [7α-hydroxy DHEA], the “elastin and collagen content of the skin” value (skin) is listed as “increases”, the “thickness of the dermis” value (skin) is listed as “increases” and the proliferation of fibroblasts (fibroblasts) is listed as “increase”. The “viability of human keratinocytes” value (human keratinocytes) was “increase”.

Molecule `C[C@]12CC[C@H](O)CC1=CC[C@@H]1[C@@H]2CC[C@]2(C)C(=O)CC[C@@H]12` [DHEA, dehydroepiandrosterone] has an RT solubility ([1]; DHEA in Capric/caprylic triglycerides) of 1.77%, an RT solubility ([1]; DHEA in Isopropyl palmitate) of 1.37% and an RT solubility ([1]; DHEA in Isostearyl neopentanoate) of 1.30%. It also gave an RT solubility ([1]; DHEA in Jojoba oil) of 1.10%, an RT solubility ([1]; DHEA in Octyl palmitate) of 1% and an RT solubility ([1]; DHEA in PPG-15 stearyl ether) of 2.68%. For the same molecule, the RT solubility ([1]; DHEA in Sesame oil) was 1.40%, the RT solubility ([1]; DHEA in α-Tocopherol) was 1.65% and the “solubility of DHEA” value ([1]; in cetearyl isononanoate) was 0.83%. The “solubility of DHEA” value ([1]; in cyclopentasiloxane) was 0.04%, the “solubility of DHEA” value ([1]; in liquid paraffin) was 0% and the “solubility of DHEA” value ([1]; in polydimethylsiloxane (200-350 cs)) was 0.17%. The “solubility of DHEA” value ([1]; in squalane) was 0.10%.
